Laboratory results from ChEMBL document CHEMBL5325464, “Design, synthesis and evaluation the bioactivities of novel 1,3-dimethyl-6-amino-1H-indazole derivatives as anticancer agents” (Bioorg Med Chem, 2023).
Calls of active or inactive are those of the source. The rule behind the calls is not given here.

Key:
MCF7 = assay: Cytotoxicity against human MCF7 cells assessed as reduction of cell viability at 25 uM measured after 24 hrs by MTT assay; assay type: functional
FaDu [1] = assay: Cytotoxicity against human FaDu cells assessed as reduction of cell viability at 20 uM measured after 24 hrs by MTT assay; assay type: functional
FaDu [2] = assay: Cytotoxicity against human FaDu cells assessed as reduction of cell viability measured after 24 hrs by MTT assay; assay type: functional, cell-based
[3] = Cytotoxicity against human YD-15 cells assessed as reduction of cell viability at 50 uM measured after 24 hrs by MTT assay; assay type: functional
[4] = Cytotoxicity against human DPSC cells assessed as reduction of cell viability at 20 uM measured after 24 hrs by MTT assay; assay type: toxicity, cell-based
[5] = molecular target: T1, Indoleamine 2,3-dioxygenase 1 (Homo sapiens, UniProt P14902); assay: Inhibition of human IDO1 expressed in human FaDu cells incubated for 24 hrs by Western blotting analysis; assay type: cell-based
Target sequence in this assay (P14902 whole entry, looked up): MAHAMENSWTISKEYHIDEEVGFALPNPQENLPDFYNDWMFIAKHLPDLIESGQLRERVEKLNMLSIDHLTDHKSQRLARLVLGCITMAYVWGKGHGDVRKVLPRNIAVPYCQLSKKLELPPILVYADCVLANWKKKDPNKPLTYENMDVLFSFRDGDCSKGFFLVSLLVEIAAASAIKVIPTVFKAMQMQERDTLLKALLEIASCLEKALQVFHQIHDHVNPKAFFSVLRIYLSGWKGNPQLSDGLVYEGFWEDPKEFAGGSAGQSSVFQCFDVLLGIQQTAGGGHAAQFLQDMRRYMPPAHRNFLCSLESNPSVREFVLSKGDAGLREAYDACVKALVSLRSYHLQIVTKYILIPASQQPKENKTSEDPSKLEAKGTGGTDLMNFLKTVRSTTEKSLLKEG

FaDu [6] = assay: Inhibition of cell migration in human FaDu cells measured after 24 hrs by wound healing assay; assay type: functional, cell-based; details: dose 1-3 µM
FaDu [7] = assay: Induction of apoptosis in human FaDu cells assessed as activation of PARP level upto 3 uM measured after 24 hrs by Western blot analysis; assay type: functional, cell-based
FaDu [8] = assay: Induction of apoptosis in human FaDu cells assessed as nuclear condensation upto 3 uM measured after 24 hrs by DAPI staining based fluorescence microscopic analysis; assay type: functional, cell-based
FaDu [9] = assay: Induction of apoptosis in human FaDu cells assessed as activation of cleaved caspase 3 level upto 3 uM measured after 24 hrs by Western blot analysis; assay type: functional, cell-based
[10] = Activation of ERK pathway in human FaDu cells assessed as effect on p38 phosphorylation upto 3 uM measured after 24 hrs by Western blotting analysis; assay type: cell-based
[11] = Activation of ERK pathway in human FaDu cells assessed as increase in ERK phosphorylation upto 3 uM measured after 24 hrs by Western blotting analysis; assay type: cell-based; details: filed as activator
[12] = Activation of ERK pathway in human FaDu cells assessed as decrease in JNK phosphorylation upto 3 uM measured after 24 hrs by Western blotting analysis; assay type: cell-based; details: filed as activator
FaDu [13] = assay: Downregulation of MMP9 expression in human FaDu cells at 1 to 3 uM incubated for 24 hrs by Western blot analysis; assay type: functional, cell-based; details: dose 1-3 µM
[14] = molecular target: T1, Indoleamine 2,3-dioxygenase 1; assay: Inhibition of human IDO1 expressed in human FaDu cells at 2.78 uM incubated for 24 hrs by ELISA assay relative to control; assay type: cell-based
Target sequence in this assay (P14902 whole entry, looked up): as above

FaDu [15] = assay: Induction of apoptosis in human FaDu cells assessed as nuclear fragmentation upto 3 uM measured after 24 hrs by DAPI staining based fluorescence microscopic analysis; assay type: functional, cell-based
[16] = molecular target: T1, Indoleamine 2,3-dioxygenase 1; assay: Inhibition of human recombinant IDO1 incubated for 1 hr by HPLC analysis
Target sequence in this assay (P14902 whole entry): as the sequence (P14902 whole entry, looked up) above

[17] = molecular target: T1, Indoleamine 2,3-dioxygenase 1; assay: Inhibition of human IDO1 expressed in human FaDu cells at IC50 incubated for 24 hrs by ELISA assay; assay type: cell-based
Target sequence in this assay (P14902 whole entry, looked up): as above

SMILES | Activity (MCF7) | Activity (FaDu [1]) | IC50 (FaDu [2]) | Activity [3] | Activity [4] | IDO1 inhibition (qualitative) [17] | also measured
Cc1nn(C)c2cc(NCc3ccc(N(C)C)cc3)ccc12 | 84.75% | 93.5% | > 50 µM | 26.86% | 91.6% | – | –
Cc1nn(C)c2cc(NCc3ccc(O)cc3)ccc12 | 100.39% | 87.72% | > 50 µM | 98.59% | 94.7% | – | –
Cc1nn(C)c2cc(NCc3ccc(Br)cc3)ccc12 | 102.61% | 8.29% | 2.78 µM | 7.87% | 94.66% | – | inhibition [5]: Dose-Dependent Effect; inhibition (FaDu [6]): Dose-Dependent Effect; Activity (FaDu [7]): Active; Activity (FaDu [8]): Active; Activity (FaDu [9]): Active; Activity [10]: inactive; Activity [11]: Active; Activity [12]: Active; Activity (FaDu [13]): Active; inhibition [14]: 45.7%; Activity (FaDu [15]): Active
COc1ccc(CNc2ccc3c(C)nn(C)c3c2)c(O)c1 | 88.27% | 84.68% | > 50 µM | 102.06% | 84.9% | – | –
Cc1nn(C)c2cc(NCc3ccncc3)ccc12 | 93.76% | 86.72% | > 50 µM | 97.98% | 82.84% | – | –
O=C(NNc1ccccc1)c1n[nH]c2cc(Br)ccc12 | – | – | – | – | – | – | IC50 [16]: 0.72 µM
COc1ccc(CNc2ccc3c(C)nn(C)c3c2)cc1O | 95.71% | 7.26% | 6.19 µM | 99.01% | 86.87% | Active | –
Cc1nn(C)c2cc(NCc3ccc(Cl)cc3)ccc12 | 101.58% | 8.43% | 3.57 µM | 52.82% | 84.13% | Active | –
Cc1nn(C)c2cc(NCc3ccc([N+](=O)[O-])cc3)ccc12 | 98.33% | 7.77% | 11.2 µM | 94.88% | 100.99% | Active | –
COc1ccc(CNc2ccc3c(C)nn(C)c3c2)c(OC)c1OC | 104.07% | 7.8% | 1.87 µM | 101.41% | 90.13% | Active | –
COc1cc(CNc2ccc3c(C)nn(C)c3c2)cc(OC)c1OC | 92.8% | 49.4% | 19.9 µM | 86.71% | 82.54% | – | –
Cc1nn(C)c2cc(NCc3ccc(F)c(F)c3)ccc12 | 100.45% | 8.08% | 3.49 µM | 63.3% | 90.4% | Active | –
COc1ccc(CNc2ccc3c(C)nn(C)c3c2)cc1 | 102.24% | 10.4% | 6.67 µM | 67.1% | 91.62% | Active | –
